Test results: patent publication US9890175B2, “Taxane compound, and preparation method and use thereof” (JIANGSU TASLY DIYI PHARMACEUTICAL CO., LTD., priority 2013, dated 2018)
Where two headings read alike, the source gives them in different places.

Assays:
[1] = test system: K562 leukemia; assay: MTT proliferation inhibition, K562; assay type: cell-based; conditions: Homo sapiens, K562, read-out: Proliferation inhibition rate, K562 Leukemia
Description: (§1) 1. Cytotoxicity Assay Using Human Tumor Cell Lines
(§2) Paclitaxel was used as the positive drug.

[2] = test system: B16 melanoma; assay: MTT proliferation inhibition, B16; assay type: cell-based; conditions: B16, read-out: Proliferation inhibition rate, B16 Melanoma
Description: as §1, §2

[3] = test system: HCT 116 colon cancer; assay: MTT proliferation inhibition, HCT 116; assay type: cell-based; conditions: Homo sapiens, HCT-116, read-out: Proliferation inhibition rate, HCT 116 Colon cancer
Description: as §1, §2

[4] = test system: Caco-2 cell monolayer; assay: Caco-2 bidirectional transport, efflux ratio; conditions: Caco-2 cell line (21 days); for efflux ratio: Papp B-A/Papp A-B
Description: (§3) Human-derived colorectal adenocarcinoma cell line Caco-2 cell monolayer model was used to study the bidirectional transport of the target compounds from the apical (AP) side to the basolateral (BL) side and from BL side to AP side. HPLC was used for quantitative analysis to calculate transport parameters, apparent permeability coefficient (Papp) and the efflux ratio.

[5] = test system: BGC-823 gastric cancer; assay: MTT proliferation inhibition, BGC-823; assay type: cell-based; conditions: Homo sapiens, BGC-823, read-out: Proliferation inhibition rate, BGC-823 Gastric cancer
Description: as §1, §2

[6] = test system: breast cancer cell line MCF-7; assay: IC50 on breast cancer cell line MCF-7; assay type: cell-based; conditions: Homo sapiens, MCF7, 72 h, read-out: MCF-7 (IC50, nM)
Protocol: From the activity evaluation data of the above-mentioned preliminary screen, it can be seen that the series of taxanes derivatives synthesized in the present invention have activity. Afterward, the compounds are investigated to examine their IC50 values on breast cancer cell line MCF-7. […] Experiments for each compound were independently repeated for three times and multiple holes were used in each experiment. The exposure time of drugs was 72 hours.

[7] = test system: Du145 prostate cancer; assay: MTT proliferation inhibition, Du145; assay type: cell-based; conditions: Homo sapiens, DU-145, read-out: Proliferation inhibition rate, DU145 Prostate cancer
Description: as §1, §2

[8] = test system: A375 melanoma; assay: MTT proliferation inhibition, A375; assay type: cell-based; conditions: Homo sapiens, A-375, read-out: Proliferation inhibition rate, A375 Melanoma
Description: as §1, §2

[9] = test system: NCI-H460 non-small cell lung cancer; assay: MTT proliferation inhibition, NCI-H460; assay type: cell-based; conditions: Homo sapiens, NCI-H460, read-out: Proliferation inhibition rate, NCI-H460 Non-small cell lung cancer
Description: as §1, §2

[10] = test system: A2780 ovarian cancer; assay: MTT proliferation inhibition, A2780; assay type: cell-based; conditions: Homo sapiens, A2780, read-out: Proliferation inhibition rate, A2780 Ovarian cancer
Description: as §1, §2

[11] = test system: HL-60 leukemia; assay: MTT proliferation inhibition, HL-60; assay type: cell-based; conditions: Homo sapiens, HL-60, read-out: Proliferation inhibition rate, HL60 Leukemia
Description: as §1, §2

[12] = test system: MCF-7 breast cancer cells; assay: MTT proliferation inhibition, MCF-7; assay type: cell-based; conditions: Homo sapiens, MCF7, read-out: Proliferation inhibition rate, MCF-7 Breast cancer
Description: as §1, §2

[13] = test system: MDA-MB-436 breast cancer cells; assay: MTT proliferation inhibition, MDA-MB-436; assay type: cell-based; conditions: Homo sapiens, MDA-MB-436, read-out: Proliferation inhibition rate, MDA-MB-436 Breast cancer
Description: as §1, §2

[14] = test system: HT-29 colon cancer; assay: MTT proliferation inhibition, HT-29; assay type: cell-based; conditions: Homo sapiens, HT-29, read-out: Proliferation inhibition rate, HT29 Colon cancer
Description: as §1, §2

[15] = test system: A549 non-small cell lung cancer; assay: MTT proliferation inhibition, A549; assay type: cell-based; conditions: Homo sapiens, A549, read-out: Proliferation inhibition rate, A549 Non-small cell lung cancer
Description: as §1, §2

[16] = test system: LN-18; assay: MTT proliferation inhibition, LN-18; assay type: cell-based; conditions: Homo sapiens, LN-18, read-out: Proliferation inhibition rate, LN-18 Gastric canser
Description: as §1, §2

[17] = Caco-2 cell monolayer membrane transport assay (Papp and recovery); assay type: in vitro ADME; conditions: human, Caco-2, Caco-2, A-B
Description: Caco-2 Cell Monolayer Membrane Transport Assay
as §3

[18] = test system: LNCaP prostate cancer; assay: MTT proliferation inhibition, LNCaP; assay type: cell-based; conditions: Homo sapiens, read-out: Proliferation inhibition rate, LNCaP Prostate cancer
Description: as §1, §2

[19] = test system: Hela cervical cancer; assay: MTT proliferation inhibition, HeLa; assay type: cell-based; conditions: Homo sapiens, read-out: Proliferation inhibition rate, HeLa Uterin cancer
Description: as §1, §2

[20] = Caco-2 bidirectional transport, efflux ratio; conditions: human, Caco-2
Description: as §3

[21] = Mean, read-out: Recovery rate in mass, Mean
[22] = Sample-01, read-out: Papp A-B, Sample-01
[23] = Sample-01, read-out: Recovery rate in mass, Sample-01
[24] = Sample-02, read-out: Papp A-B, Sample-02
[25] = Sample-02, read-out: Recovery rate in mass, Sample-02

SMILES | inhibition at 1 µM [1] | inhibition at 1 µM [2] | inhibition at 1 µM [3] | inhibition at 1 µM [5] | IC50 [6] | inhibition at 1 µM [7] | inhibition at 1 µM [8] | inhibition at 1 µM [9] | inhibition at 1 µM [10] | inhibition at 1 µM [11] | inhibition at 1 µM [12] | inhibition at 1 µM [13] | inhibition at 1 µM [14] | inhibition at 1 µM [15] | inhibition at 1 µM [16] | Papp A→B ([17]; Mean, read-out: Papp A-B, Mean) | recovery [17, 21] | Papp A→B [17, 22] | recovery [17, 23] | Papp A→B [17, 24] | also measured
CO[C@H]1C(=O)[C@]2(C)[C@@H](OC)C[C@H]3OC[C@@]3(OC(C)=O)[C@H]2[C@H](OC(=O)c2ccccc2)[C@]23OC(=O)O[C@H]2[C@H](OC(=O)[C@H](O)[C@@H](NC(=O)OC(C)(C)C)c2ccccc2)C(C)=C1C3(C)C [PCMI-01] | 92.8% | 78.1% | 59.7% | 93.1% | 2.1 ± 0.08 nM | 87.8% | 90.8% | 87.9% | 96.7% | 96.6% | 96% | 81.5% | 89.4% | 66.9% | 92.8% | 4.17 ×10⁻⁶ cm/s | 54.7% | 4.47 ×10⁻⁶ cm/s | 48.2% | 3.87 ×10⁻⁶ cm/s | Papp A-B [4]: 2.83 10^−6 cm/s; Papp B-A [4]: 18.20 10^−6 cm/s; efflux ratio [4]: 6.42; recovery [17, 25]: 61.2%; inhibition at 1 µM [18]: 80.7%; inhibition at 1 µM [19]: 101%
CO[C@H]1C(=O)[C@]2(C)CC[C@H]3OC[C@@]3(OC(C)=O)[C@H]2[C@H](OC(=O)c2ccccc2)[C@]23OC(=O)O[C@H]2[C@H](OC(=O)[C@H](O)[C@@H](NC(=O)OC(C)(C)C)c2ccccc2)C(C)=C1C3(C)C [PCMI-07] | 94% | 78.6% | 68.8% | 94.1% | 4.49 ± 0.02 nM | 86.8% | 92.5% | 82.7% | 95% | 97.5% | 87.1% | 80.5% | 86.6% | 74.9% | 96.1% | 2.64 ×10⁻⁶ cm/s | 50.3% | 3.24 ×10⁻⁶ cm/s | 54.2% | 2.05 ×10⁻⁶ cm/s | Papp A-B [4]: 2.64 10^−6 cm/s; Papp B-A [4]: 25.26 10^−6 cm/s; efflux ratio [4]: 9.56; recovery [17, 25]: 46.3%; inhibition at 1 µM [18]: 84.9%; inhibition at 1 µM [19]: 100%
CO[C@H]1C(=O)[C@]2(C)[C@@H](OC(=O)N(C)C)C[C@H]3OC[C@@]3(OC(C)=O)[C@H]2[C@H](OC(=O)c2ccccc2)[C@]23OC(=O)O[C@H]2[C@H](OC(=O)[C@H](O)[C@@H](NC(=O)OC(C)(C)C)c2ccccc2)C(C)=C1C3(C)C [PCMI-14] | 92.7% | 80.3% | 65.5% | 95.8% | 15.4 ± 0.16 nM | 89.8% | 95.3% | 86.9% | 94.2% | 97.5% | 88.5% | 80.2% | 87.3% | 76.2% | 93.5% | 3.04 ×10⁻⁶ cm/s | 91.3% | 3.21 ×10⁻⁶ cm/s | 95% | 2.87 ×10⁻⁶ cm/s | Papp A→B [20]: 1.98 ×10⁻⁶ cm/s; Papp B→A [20]: 19 ×10⁻⁶ cm/s; efflux ratio [20]: 9.58; recovery [17, 25]: 87.6%; inhibition at 1 µM [18]: 85.3%; inhibition at 1 µM [19]: 99.9%
